According to the NIST ThermoML archive (doi:10.1021/je3010535):
Several values for one entry are separate records, joined by “and”; a condition that tells them apart may be missing. Equal values may be shown once. Numbers after ± are expanded uncertainties.

Test: Henry's Law constant (molality scale); of the first substance listed, at infinite dilution; mn = molality of the nth substance listed, in mol/kg
Conditions: Liquid, Chromatography, m1 = 0

| SMILES | Henry's Law constant (274.15 K) | Henry's Law constant (294.65 K) | Henry's Law constant (296.15 K) | Henry's Law constant (310.15 K) | Henry's Law constant (313.15 K) | Henry's Law constant (320.15 K) | Henry's Law constant (326.15 K) | Henry's Law constant (331.15 K) |
| --- | --- | --- | --- | --- | --- | --- | --- | --- |
| Clc1cccc(Cl)c1 [1,3-dichlorobenzene] + O | 50.3 ± 20 kPa·kg/mol | 160 kPa·kg/mol and 164 kPa·kg/mol | 185 ± 74 kPa·kg/mol | 309 ± 120 kPa·kg/mol | 552 ± 220 kPa·kg/mol | 519 ± 210 kPa·kg/mol | 967 ± 390 kPa·kg/mol | 768 ± 310 kPa·kg/mol |
| ClC(Cl)=C(Cl)Cl [tetrachloroethene] + O | 320 ± 130 kPa·kg/mol | 755 kPa·kg/mol and 879 kPa·kg/mol | 813 ± 330 kPa·kg/mol | 2470 ± 990 kPa·kg/mol | 2240 ± 900 kPa·kg/mol |  | 2750 ± 1100 kPa·kg/mol | 5600 ± 2200 kPa·kg/mol |
| Cc1ccccc1C [1,2-dimethylbenzene] + O | 96.1 ± 29 kPa·kg/mol | 281 kPa·kg/mol and 291 kPa·kg/mol | 318 ± 95 kPa·kg/mol | 321 ± 96 kPa·kg/mol | 781 ± 230 kPa·kg/mol |  | 1400 ± 420 kPa·kg/mol | 1360 ± 410 kPa·kg/mol |
| Cc1ccc(C)c(C)c1 [1,2,4-trimethylbenzene] + O | 82.9 ± 33 kPa·kg/mol | 235 kPa·kg/mol and 255 kPa·kg/mol | 292 ± 120 kPa·kg/mol | 497 ± 200 kPa·kg/mol | 974 ± 390 kPa·kg/mol |  | 1770 ± 710 kPa·kg/mol | 1390 ± 550 kPa·kg/mol |
| CC1CCCCC1 [methylcyclohexane] + O | 1060 ± 320 kPa·kg/mol | 2350 kPa·kg/mol and 2300 kPa·kg/mol | 2010 ± 600 kPa·kg/mol |  | 9440 ± 2800 kPa·kg/mol |  | 15600 ± 4700 kPa·kg/mol |  |
| c1ccccc1 [benzene] + O | 193 ± 58 kPa·kg/mol | 480 kPa·kg/mol and 474 kPa·kg/mol | 528 ± 160 kPa·kg/mol | 1190 ± 360 kPa·kg/mol | 832 ± 250 kPa·kg/mol |  | 1410 ± 420 kPa·kg/mol | 2240 ± 670 kPa·kg/mol |
| Cc1ccccc1 [toluene] + O | 164 ± 49 kPa·kg/mol | 459 kPa·kg/mol and 470 kPa·kg/mol | 489 ± 150 kPa·kg/mol | 316 ± 95 kPa·kg/mol | 982 ± 290 kPa·kg/mol |  | 1840 ± 550 kPa·kg/mol | 3030 ± 910 kPa·kg/mol |
| Cl/C=C/CCl [(E)-1,3-dichloro-1-propene] + O | 52.9 ± 16 kPa·kg/mol | 144 kPa·kg/mol | 153 ± 46 kPa·kg/mol | 300 ± 90 kPa·kg/mol |  |  |  | 929 ± 280 kPa·kg/mol |
| Cc1cccc(C)c1 [1,3-dimethylbenzene] + O | 147 ± 59 kPa·kg/mol | 381 kPa·kg/mol and 439 kPa·kg/mol | 457 ± 180 kPa·kg/mol |  | 1170 ± 470 kPa·kg/mol |  | 2090 ± 840 kPa·kg/mol | 1810 ± 730 kPa·kg/mol |
| Cc1ccc(C)cc1 [1,4-dimethylbenzene] + O | 147 ± 59 kPa·kg/mol | 381 kPa·kg/mol and 439 kPa·kg/mol | 457 ± 180 kPa·kg/mol |  | 1170 ± 470 kPa·kg/mol |  | 2090 ± 840 kPa·kg/mol | 1810 ± 730 kPa·kg/mol |
| Clc1ccc(Cl)c(Cl)c1 [1,2,4-trichlorobenzene] + O | 26.9 ± 11 kPa·kg/mol | 75.2 kPa·kg/mol and 81.4 kPa·kg/mol | 83.2 ± 33 kPa·kg/mol | 148 ± 59 kPa·kg/mol |  | 260 ± 100 kPa·kg/mol | 730 ± 290 kPa·kg/mol | 425 ± 170 kPa·kg/mol |
| ClCC(Cl)(Cl)Cl [1,1,1,2-tetrachloroethane] + O | 60.3 ± 18 kPa·kg/mol | 184 kPa·kg/mol and 168 kPa·kg/mol | 199 ± 60 kPa·kg/mol | 388 ± 120 kPa·kg/mol |  |  | 832 ± 250 kPa·kg/mol | 1090 ± 330 kPa·kg/mol |
| ClCCCCl [1,3-dichloropropane] + O | 18.8 ± 5.6 kPa·kg/mol | 65 kPa·kg/mol and 65.9 kPa·kg/mol | 70.6 ± 21 kPa·kg/mol | 156 ± 47 kPa·kg/mol |  | 287 ± 86 kPa·kg/mol |  | 421 ± 130 kPa·kg/mol |
| BrCCBr [1,2-dibromoethane] + O | 12.7 ± 3.8 kPa·kg/mol | 54.1 kPa·kg/mol and 41.2 kPa·kg/mol | 57.8 ± 17 kPa·kg/mol | 130 ± 39 kPa·kg/mol |  | 218 ± 66 kPa·kg/mol |  | 333 ± 100 kPa·kg/mol |
| Clc1ccccc1 [chlorobenzene] + O | 83.7 ± 25 kPa·kg/mol | 246 kPa·kg/mol and 238 kPa·kg/mol | 270 ± 81 kPa·kg/mol | 423 ± 130 kPa·kg/mol | 532 ± 160 kPa·kg/mol |  | 1050 ± 310 kPa·kg/mol | 1180 ± 350 kPa·kg/mol |
| CCC(C)c1ccccc1 (stereo unspecified) [(1-methylpropyl)benzene] + O | 251 kPa·kg/mol |  | 634 kPa·kg/mol | 1100 kPa·kg/mol | 2690 kPa·kg/mol |  | 4160 kPa·kg/mol | 2310 kPa·kg/mol |
| ClCC(Cl)Cl [1,1,2-trichloroethane] + O | 16.9 ± 5.1 kPa·kg/mol | 62 kPa·kg/mol and 60.4 kPa·kg/mol | 65 ± 20 kPa·kg/mol | 148 ± 44 kPa·kg/mol |  | 263 ± 79 kPa·kg/mol |  | 419 ± 130 kPa·kg/mol |
| CCc1ccccc1 [ethylbenzene] + O | 162 kPa·kg/mol |  | 533 kPa·kg/mol |  | 1290 kPa·kg/mol |  | 2320 kPa·kg/mol | 1830 kPa·kg/mol |
| CC(C)c1ccccc1 [isopropylbenzene] + O | 212 ± 64 kPa·kg/mol | 536 kPa·kg/mol and 588 kPa·kg/mol | 622 ± 190 kPa·kg/mol | 1380 ± 410 kPa·kg/mol | 1960 ± 590 kPa·kg/mol |  | 3260 ± 980 kPa·kg/mol | 3130 ± 940 kPa·kg/mol |
